Measured values: patent publication US11649245B2, “Cyclopropylamine compound as LSD1 inhibitor and use thereof” (HELIOEAST PHARMACEUTICAL CO., LTD., priority 2018, dated 2023)
Where a name gives a salt, the structure may show the parent alone. Read-outs that look alike come from different tables or passages of the source.

How the values were obtained:
[1] = system: human small cell lung cancer NCI-H1417 xenograft tumor model; experiment: In vivo pharmacodynamic study on NCI-H1417 subcutaneous xenograft tumor in CB-17 SCID mice; conditions: compound 6 hydrochloride 1.5 mg/kg oral once a day, cisplatin 1 mg/kg i.p. twice a week
Protocol: The purpose of the experiment was to evaluate the in vivo efficacy of the compounds of the present disclosure on subcutaneous xenograft tumor of human small cell lung cancer NCI-H1417 cells in a CB-17 SCID mouse model.
Human small cell lung cancer NCI-H1417 cells (ATCC) were cultured in vitro in a single layer, the culture conditions were RPMI-1640 culture medium supplemented with 10% fetal bovine serum, 37° C. 5% CO2. When the cell saturation reached 80%-90%, the cells were collected, counted, and inoculated.
0.2 mL of 10×10^6 NCI-H1417 cells were subcutaneously inoculated into the right back of each mouse (PBS: Matrigel=1:1). Group administration was started when the average volume reached 100-150 mm^3.
The vehicle used in the experiment was 0.5% methylcellulose solution, the preparation method was: 5 g of methylcellulose was weighed and dissolved in 800 mL ultrapure water, stirred evenly and made up to 1000 mL with ultrapure water. The test substance was dissolved in a solvent and prepared into a uniform solution of a certain concentration, and stored at 4° C.
Cisplatin (Cisplatin, manufacturer Qilu Pharmaceutical Co., Ltd., 10 mg/bottle freeze-dried powder for injection, lot number 7D011A8) was added to 10 mL 0.9% NaCl to make a 1 mg/mL mother liquor, and stored at room temperature and protected from light. The mother liquor was aliquoted into 0.63 mL and stored at room temperature. 5.67 mL 0.9% NaCl was added to one of the 0.63 mL mother liquor to make a 0.1 mg/mL solution.
The experimental indicator is to investigate whether tumor growth was inhibited, delayed, or cured. Tumor diameters were measured with a vernier caliper twice a week. The tumor volume was calculated by the calculation formula: V=0.5a×b^2, a and b respectively represent the long and short diameters of the tumor.
The anti-tumor effect of the compounds was evaluated by TGI (%). TGI (%) can reflect the tumor growth inhibition rate. TGI (%) calculation: TGI (%)=[1-(the average tumor volume at the end of the administration in a treatment group—the average tumor volume at the beginning of the administration in the treatment group)/(the average tumor volume at the end of the treatment of the solvent control group—the average tumor volume at the beginning of the treatment of the solvent control group)]×100%.

human LSD1 = human LSD1 (Homo sapiens, UniProt O60341); experiment: In vitro enzyme activity screening against LSD1 (HRP/Amplex Red fluorescence coupling enzyme method); type: biochemical; conditions: human LSD1, histone H3K4me peptide substrate 20 μM
Protocol: The purpose of this test was to detect the in vitro inhibitory activity of the compounds against LSD1. The enzyme used in this test was human LSD1, the standard substrate was histone H3K4me peptide (20 μM), the fluorescence coupling enzyme method was used to determine the activity of the compound by combining horseradish peroxidase (HRP) and fluorescent reagent Amplex Red to detect the H2O2 generation as a result of the reaction of LSD1. Compounds were tested in 10-dose IC50 mode with a 3-fold serial dilution starting at 10 μM. The enzyme and […] to start the reaction. Fluorescence detector: Envision, excitation wavelength: Ex/Em=530/590 […]

NCI-H1417 cells = experiment: Antiproliferation activity on NCI-H1417 cells (CellTiter-Glo, 10 days); type: cell-based, human; conditions: incubated for 10 days
Protocol: Experimental purpose: to detect the antiproliferation activity of the compounds on NCI-H1417 cells.
Experimental materials: RPMI 1640 culture medium, fetal bovine serum, Promega CellTiter-Glo reagent. NCI-H1417 cell line purchased from ATCC. Envision multi-label reader (PerkinElmer).
Experimental method: the compounds were dissolved to 10 mM, then the compounds were diluted 5 times with DMSO in a compound plate, the compounds were diluted 3-fold with Bravo from a starting concentration of 2 mM to the 10th concentration, 250 nL of the solutions were transferred to the upper and lower duplicate wells on a blank 384 cell plate by Echo transfer plate, cell suspension of per well/1000 cells/50 μL was added to the transferred 250 nL DMSO/compound, the compounds were diluted 200-fold, i.e., the initial action concentration was 10 μM. The cell plate was placed in a carbon dioxide incubator and incubated for 10 days. 25 μL of Promega CellTiter-Glo reagent was added to each well on the cell plate and was shaken at room temperature for 10 minutes to stabilize the luminescence signal. Readings were performed by PerkinElmer Envision multi-label analyzer.
Data analysis: the equation (Max-Ratio)/(Max-Min)*100% was used to convert the original data into the inhibition rate, the value of IC50 can be obtained by curve fitting of four-parameters (the 205 mode in XLFITS, iDBS).

HL60 cells = experiment: Antiproliferation activity on HL60 cells (CellTiter-Glo, 6 days); type: cell-based; conditions: incubated for 6 days
Description: Experimental purpose: to detect the antiproliferation activity of the compound to be tested on HL60 cells.
(§1) Experimental materials: RPMI-1640 culture medium, fetal bovine serum, penicillin/streptomycin antibiotics purchased from Wisent. CellTiter-Glo (chemiluminescent cell viability assay reagent) reagents purchased from Promega. HL60 cell line purchased from Nanjing Cobioer Co., Ltd. Nivo multi-label reader (PerkinElmer).
Experimental method: HL60 cells were planted in a white 384-well plate, 40 μL of cell suspension per well, 600 HL60 cells were contained therein. The cell plate was placed in a carbon dioxide incubator for overnight culture. The compounds to be tested were diluted 5-fold with a pipet until the 10th concentration, i.e., diluted from 2 mM to 1.024 nM, double duplicate well experiment was set. 78 μL of the culture medium was added to an intermediate plate, and then 2 μL per well of the serially diluted compounds were transferred to the corresponding positions on the intermediate plate, after mixing, 10 μL per well was transferred to the cell plate. The cell plate was incubated in a carbon dioxide incubator for 6 days. Another cell plate was prepared and the signal value on the day of dosing was read as the maximum value (Max value in the equation below) to participate in the data analysis. 20 μL of chemiluminescent cell viability assay reagent was added to each well of this cell plate, which was incubated at room temperature for 10 minutes to stabilize the luminescence signal. The multi-label reader was used for reading.
(§2) Data analysis: the equation (Sample-Min)/(Max-Min)*100% was used to convert the original data into the inhibition rate, the IC50 value can be obtained by curve fitting of four-parameters (“log(inhibitor) vs. response—Variable slope” mode in GraphPad Prism)).

MV-4-11 cells = experiment: Antiproliferation activity on MV-4-11 cells (CellTiter-Glo, 6 days); type: cell-based; conditions: incubated for 6 days
Description: Experimental purpose: to detect the antiproliferation activity of the compound to be tested on MV-4-11 cells.
as §1, with “IMDM” for “RPMI-1640”, “MV-4-11” for “HL60”, “line was” for “line”, “Multi-Marker Analyzer” for “multi-label reader”
Experimental method: MV-4-11 cells were planted in a white 96-well plate, 80 μL of cell suspension per well, which contained 6000 MV-4-11 cells. The cell plate was placed in a carbon dioxide incubator for overnight culture.
The compounds to be tested were diluted 5-fold with a pipet until the 8th concentration, i.e., diluted from 2 mM to 25.6 nM, double duplicate well experiment was set. 78 μL of the culture medium was added to an intermediate plate, and then 2 μL per well of the serially diluted compounds were transferred to the corresponding positions on the intermediate plate, after mixing, 20 μL per well was transferred to the cell plate. The cell plate was incubated in a carbon dioxide incubator for 6 days. Another cell plate was prepared and the signal value on the day of dosing was read as the maximum value (Max value in the equation below) to participate in the data analysis. 25 μL of the chemiluminescent cell viability assay reagent was added to each well of this cell plate, which was incubated at room temperature for 10 minutes to stabilize the luminescence signal. The multi-label analyzer was used for reading.
as §2

[2] = In vivo pharmacokinetics in CD-1 mice; conditions: male CD-1 mice; for Cmax: route not given, read-out: Max concentration Cmax
Protocol: CD-1 mice (male, 7-9 weeks old, Shanghai Slac)
The rodent pharmacokinetic characteristics after intravenous injection and oral administration of the compounds were tested by standard protocols, in the experiment, the candidate compounds were formulated into clear solutions and administrated to mice via a single intravenous injection and oral administration. The vehicle for intravenous injection and oral administration was a mixed solution of 10% of dimethyl sulfoxide and 90% of 10% hydroxypropyl β cyclodextrin. This project used four male CD-1 mice, two mice were administered intravenously, with a dose of 1 mg/kg, and plasma samples were collected at 0 hour (before administration) and 0.0833, 0.25, 0.5, 1, 2, 4, 8, 24 hours after administration. The other two mice were orally administered by gavage, with a dose of 2 mg/kg, plasma samples were collected at 0 hour (before administration) and 0.25, 0.5, 1, 2, 4, 8, 24 hours after administration, whole blood samples were collected within 24 hours, which were centrifuged at 3000 g for 15 minutes, and the supernatants were separated to obtain plasma samples, 4 times volume of acetonitrile solutions containing internal standard were added to precipitate the protein, the mixtures were centrifuged to obtain the supernatants, the supernatants were added with water of equal volume and centrifuged again to take the supernatant for injection, and the blood drug concentration was quantitatively analyzed by the LC-MS/MS analysis method, and pharmacokinetic parameters were calculated, such as max concentration (Cmax), clearance (CL), half-life (T1/2), volumes of distribution (Vdss), the area under the plasma concentration-time curve (AUC0-last), bioavailability (F) etc.

[3] = oral 2 mg/kg vs intravenous 1 mg/kg
[4] = study doses 1 mg/kg intravenous, 2 mg/kg oral

IC50 (human LSD1) [nM]	IC50 (MV-4-11 cells) [nM]	Half-life T1/2 (IV) ([2]; IV 1 mg/kg, 1 mg/kg) [min]	The area under the plasma concentration-time curve AUC0-last PO ([2]; PO 2 mg/kg, 2 mg/kg) [µM·h]	Bioavailability F [2, 3] [%]	Clearance CL [2, 4] [mL/min/kg]	Volumes of distribution Vdss [2, 4] [L/kg]	Cmax [2, 4] [nM]	IC50 (NCI-H1417 cells; Homo sapiens, NCI-H1417, 240 h) [nM]	IC50 (HL60 cells; Homo sapiens, HL-60, 144 h) [nM]	Compound	further results
–	–	–	–	–	–	–	–	–	–	N.N.[Cl][Pt][Cl] [Cisplatin, reference compound]	Tumor volume mean ± SEM (28th day) ([1]; CB-17 SCID mice): 165 ± 22 mm^3; TGI ([1]; tumor growth inhibition rate, 28th day): 85.9%
353	13.2	29.4	0.765	39.1	41.8	0.835	919	–	–	O=C(O)c1ccc(CN2CCC3(CC2)CC(N[C@@H]2C[C@H]2c2ccccc2)CO3)cc1 (some centres unmarked) [Hydrochloride of the compound 15]	IC50 (NCI-H1417 cells): 13.1 nM; IC50 (HL60 cells): 13.8 nM
262	13.7	34.7	0.891	36.9	33.8	0.88	860	12.1	8.46	O=C(O)c1ccc(CN2CCC3(CC2)CC(N[C@@H]2C[C@H]2c2ccccc2)CO3)cc1 (some centres unmarked) [Hydrochloride of the compound 16]	–
242	–	–	–	–	–	–	–	3.99	8.99	O=C(O)c1ccc(CN2CCC3(CC2)CC(N[C@@H]2C[C@H]2c2ccccc2)CO3)cn1 (some centres unmarked) [Hydrochloride of the compound 20]	IC50 (MV-4-11 cells; Homo sapiens, MV4-11, 144 h): 9.56 nM; half-life ([2]; male, CD-1, mouse, plasma, iv, 1 mg/kg, IV 1 mg/kg, read-out: Half-life T1/2 (IV) (converted)): 54.3 min; clearance ([2]; male, CD-1, mouse, plasma, iv, 1 mg/kg, study doses 1 mg/kg intravenous, 2 mg/kg oral, read-out: Clearance CL): 19.7 mL/min/kg; Vd ([2]; male, CD-1, mouse, plasma, iv, 1 mg/kg, study doses 1 mg/kg intravenous, 2 mg/kg oral, read-out: Volumes of distribution Vdss): 0.752 L/kg; Cmax ([2]; male, CD-1, mouse, plasma, study doses 1 mg/kg intravenous, 2 mg/kg oral): 714 nM; AUC(0-t) ([2]; male, CD-1, mouse, plasma, po, 2 mg/kg, PO 2 mg/kg, read-out: The area under the plasma concentration-time curve AUC0-last PO): 1.34 µM·h; bioavailability ([2]; male, CD-1, mouse, plasma, po, 2 mg/kg, oral 2 mg/kg vs intravenous 1 mg/kg, read-out: Bioavailability F): 29%
